We go through 23 compounds from patent US12441725B2, “ISO-citrate dehydrogenase (IDH) inhibitor” (ZHEJIANG METON PHARMACEUTICAL CO., LTD, priority 2019, dated 2025).

Each structure is given as a SMILES string.

The target in experiment [1] is T1, IDH (endogenous IDH1 R132C) in HT1080 cell (Homo sapiens, UniProt O75874, R132C).
T1 construct: which harbor endogenous heterozygous IDH1 R132C and R132H mutation respectively and accumulate D-2-HG
Nature of the experiment: Cell-based assay for IDH inhibition (decrease of D-2-HG) in HT1080 cells. As to conditions: human fibrosarcoma cell line HT1080, 16 hours treatment, D-2-HG by LC-MS, in triplet. In outline: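 LC-MS/MS quantification of D-2-HG, normalized to glutamate, follows a 16 h compound exposure of IDH1 R132C HT1080 cells in DMEM with 10% FBS. Extraction uses pre-chilled 40% methanol/40% acetonitrile in water. Triplicate determinations; IC50 from D-2-HG levels relative to DMSO-treated cells.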

The target of a further experiment is T2, IDH1 R132C (Homo sapiens, UniProt O75874, R132C).
T2 construct: 6xHis
T2 sequence (O75874 whole entry R132C): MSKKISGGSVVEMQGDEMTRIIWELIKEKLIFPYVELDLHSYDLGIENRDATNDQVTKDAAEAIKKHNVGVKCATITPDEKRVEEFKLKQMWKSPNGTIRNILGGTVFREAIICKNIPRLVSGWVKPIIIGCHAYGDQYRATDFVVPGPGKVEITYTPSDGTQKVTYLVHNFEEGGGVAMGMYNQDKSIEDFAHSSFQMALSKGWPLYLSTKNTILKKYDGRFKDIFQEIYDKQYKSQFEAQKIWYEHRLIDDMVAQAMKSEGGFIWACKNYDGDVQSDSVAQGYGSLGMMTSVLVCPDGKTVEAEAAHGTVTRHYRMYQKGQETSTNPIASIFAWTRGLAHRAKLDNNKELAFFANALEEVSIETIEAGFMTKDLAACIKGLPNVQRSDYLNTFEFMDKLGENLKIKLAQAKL
The experiment can be described thus: Biochemical assay for IDH inhibition (NADPH fluorescence), mutant IDH1 R132C. The following applies: 25 nM IDH1-R132C, 1 hour pre-incubation, in triplet. The essentials:
(§1)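 The read-out was the linear-phase loss of NADPH fluorescence (340/460 nm) over 15 min, background-subtracted and normalized to DMSO wells, giving triplicate IC50 values. Beforehand, R132H (50 nM) or R132C (25 nM) was exposed to compound for 1 h at room temperature with 1.33 mM α-KG at pH 7.5, and the reaction was triggered by adding an 80 μM NADPH solution.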

In another experiment the target is T3, IDH1 R132H (Homo sapiens, UniProt O75874, R132H).
T3 construct: 6xHis
T3 sequence (O75874 whole entry R132H): as the sequence (O75874 whole entry R132C) above, with C132H counted along it
Nature of the experiment: Biochemical assay for IDH inhibition (NADPH fluorescence), mutant IDH1 R132H. The following applies: 50 nM IDH1-R132H, 1 hour pre-incubation, in triplet. The essentials: as §1

T1 sequence (O75874 2-414 R132C): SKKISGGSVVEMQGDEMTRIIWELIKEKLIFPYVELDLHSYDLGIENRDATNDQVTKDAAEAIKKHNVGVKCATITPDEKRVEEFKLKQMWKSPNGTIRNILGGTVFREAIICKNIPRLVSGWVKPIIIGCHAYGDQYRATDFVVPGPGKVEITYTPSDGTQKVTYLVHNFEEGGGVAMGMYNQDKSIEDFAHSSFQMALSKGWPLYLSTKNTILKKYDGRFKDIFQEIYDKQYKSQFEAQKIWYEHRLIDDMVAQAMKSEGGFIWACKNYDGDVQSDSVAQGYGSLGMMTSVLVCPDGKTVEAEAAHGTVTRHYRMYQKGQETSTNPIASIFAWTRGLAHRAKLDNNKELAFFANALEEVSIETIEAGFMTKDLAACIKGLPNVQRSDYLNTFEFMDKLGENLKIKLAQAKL

For `CCN1Cc2c(ccnc2N[C@@H](C)c2ccc(CN3CCC(F)(F)CC3)c(F)c2)C1=O` [Compound 55, (S)-4-((1-(4-((4,4-difluoropiperidin-1-yl)methyl)-3-fluorophenyl)ethyl)amino)-2-ethyl-2,3-dihydro-1H-pyrrolo[3,4-c]pyridin-1-one], the IC50 (in experiment [1]; on IDH1 R132C; at IDH1 R132H) was over 1000 nM in each case.

For `CCN1Cc2c(ccnc2N[C@@H](C)c2cn(-c3ccnc(C(C)(C)C)c3)cn2)C1=O` [Compound 56, (S)-4-((1-(1-(2-(tert-butyl)pyridin-4-yl)-1H-imidazol-4-yl)ethyl)amino)-2-ethyl-2,3-dihydro-1H-pyrrolo[3,4-c]pyridin-1-one], the IC50 (in experiment [1]; at IDH1 R132C; at IDH1 R132H) was over 1000 nM throughout.

Regarding `CCN1Cc2c(N[C@@H](C)c3cn(-c4ccc(F)cc4)cn3)ncc(F)c2C1=O` [Compound 57, (S)-2-ethyl-7-fluoro-4-((1-(1-(4-fluorophenyl)-1H-imidazol-4-yl)ethyl)amino)-2,3-dihydro-1H-pyrrolo[3,4-c]pyridin-1-one], the 50% inhibitory concentration (IC50) (in experiment [1]; at IDH1 R132C; on IDH1 R132H) was over 1000 nM throughout.

Take `CCN1Cc2c(ccnc2N[C@H](C)c2cn(-c3ccc(Cl)cc3)cn2)C1=O` [Compound 58, (R)-4-((1-(1-(4-chlorophenyl)-1H-imidazol-4-yl)ethyl)amino)-2-ethyl-2,3-dihydro-1H-pyrrolo[3,4-c]pyridin-1-one]: the IC50 (in experiment [1]; at IDH1 R132C; at IDH1 R132H) was over 1000 nM each time.

For `CCN1Cc2c(ccnc2N[C@@H](C)c2ccc(-n3ccc(C)n3)c(F)c2)C1=O` [Compound 59, (S)-2-ethyl-4-((1-(3-fluoro-4-(3-methyl-1H-pyrazol-1-yl)phenyl)ethyl)amino)-2,3-dihydro-1H-pyrrolo[3,4-c]pyridin-1-one], the concentration for half-maximal inhibition (IC50) (in experiment [1]; at IDH1 R132C; on IDH1 R132H) was over 1000 nM in each case.

Regarding `CCN1Cc2c(ccnc2N[C@@H](C)c2ccc(C(=O)c3ccccc3)c(F)c2)C1=O` [Compound 60, (S)-4-((1-(4-benzoyl-3-fluorophenyl)ethyl)amino)-2-ethyl-2,3-dihydro-1H-pyrrolo[3,4-c]pyridin-1-one], the IC50 (in experiment [1]; at IDH1 R132C; at IDH1 R132H) was over 1000 nM in each case.

For the compound `CCN1Cc2c(ccnc2N[C@@H](C)c2ccc(C(=O)c3cccnc3)c(F)c2)C1=O` [Compound 61, (S)-2-ethyl-4-((1-(3-fluoro-4-nicotinoylphenyl)ethyl)amino)-2,3-dihydro-1H-pyrrolo[3,4-c]pyridin-1-one], the IC50 (in experiment [1]; on IDH1 R132C; on IDH1 R132H) was over 1000 nM throughout.

In the case of `CCN1Cc2c(ccnc2N[C@@H](C)c2ccc(C(=O)NC3CCCCC3)c(Cl)c2)C1=O` [Compound 62, (S)-2-chloro-N-cyclohexyl-4-(1-((2-ethyl-1-oxo-2,3-dihydro-1H-pyrrolo[3,4-c]pyridin-4-yl)amino)ethyl)benzamide], the IC50 (in experiment [1]; on IDH1 R132C; on IDH1 R132H) was over 1000 nM throughout.

As for `CCN1Cc2c(ccnc2N[C@@H](C)c2cc(C(C)(C)C)ncc2F)C1=O` [Compound 63, (S)-4-((1-(2-(tert-butyl)-5-fluoropyridin-4-yl)ethyl)amino)-2-ethyl-2,3-dihydro-1H-pyrrolo[3,4-c]pyridin-1-one], the IC50 (in experiment [1]; at IDH1 R132C; at IDH1 R132H) was over 1000 nM throughout.

In the case of `CCN1Cc2c(ccnc2N[C@@H](C)c2cc3cc(Cl)ccc3[nH]c2=O)C1=O` [Compound 64, (S)-6-chloro-3-(1-((2-ethyl-1-oxo-2,3-dihydro-1H-pyrrolo[3,4-c]pyridin-4-yl)amino)ethyl)quinolin-2(1H)-one], the half-inhibitory concentration (IC50) in experiment [1] is over 1000 nM; at IDH1 R132C, over 1000 nM; on IDH1 R132H it was 100 to 500 nM.

Turning to `CCN1Cc2c(N[C@@H](C)c3ccc(Oc4ccc(C)cc4)c(F)c3)ncnc2C1=O` [Compound 65, 6-ethyl-4-[[(1S)-1-[3-fluoro-4-(4-methylphenoxy)phenyl]ethyl]amino]-5H-pyrrolo[3,4-d]pyrimidin-7-one], the values for the IC50 (in experiment [1]; at IDH1 R132C; at IDH1 R132H) were 100 to 500 nM, over 1000 nM and over 1000 nM, respectively.

In the case of `CCN1Cc2c(N[C@@H](C)c3ccc(-c4ccnc(C(C)(C)C)c4)c(F)c3)ncnc2C1=O` [Compound 66, (S)-4-((1-(4-(2-(tert-butyl)pyridin-4-yl)-3-fluorophenyl)ethyl)amino)-6-ethyl-5H-pyrrolo[3,4-d]pyrimidin-7(6H)-one], the 50% inhibitory concentration (IC50) in experiment [1] is 500 to 1000 nM; on IDH1 R132C, over 1000 nM; at IDH1 R132H, 100 to 500 nM.

Regarding `CCN1Cc2c(N[C@@H](C)c3ccc(-c4ccc(F)c(C)c4)c(F)c3)ncnc2C1=O` [Compound 67, (S)-4-((1-(2,4′-difluoro-3′-methyl-[1,1′-biphenyl]-4-yl)ethyl)amino)-6-ethyl-5H-pyrrolo[3,4-d]pyrimidin-7(6H)-one], the IC50 in experiment [1] was 100 to 500 nM; at IDH1 R132C, over 1000 nM; on IDH1 R132H it was over 1000 nM.

Turning to `CCN1Cc2c(ccnc2N[C@@H](C)c2ccc(C3CCCC3)c(F)c2)C1=O` [Compound 68, 4-[[(1S)-1-(4-cyclopentyl-3-fluoro-phenyl)ethyl]amino]-2-ethyl-3H-pyrrolo[3,4-c]pyridin-1-one], the 50% inhibitory concentration (IC50) was over 1000 nM in experiment [1], over 1000 nM on IDH1 R132C and 500 to 1000 nM at IDH1 R132H.

Take `CCN1Cc2c(ccnc2N[C@@H](C)c2ccc(-c3ccnc(C(C)(C)C(N)=O)c3)c(F)c2)C1=O` [Compound 69, 2-[4-[4-[(1S)-1-[(2-ethyl-1-oxo-3H-pyrrolo[3,4-c]pyridin-4-yl)amino]ethyl]-2-fluoro-phenyl]-2-pyridyl]-2-methyl-propanamide]: the results for the IC50 (in experiment [1]; on IDH1 R132C; at IDH1 R132H) were 500 to 1000 nM, over 1000 nM and over 1000 nM, respectively.

Consider `CCN1Cc2c(ccnc2N[C@@H](C)c2ccc(-c3ccnc4ccccc34)c(F)c2)C1=O` [Compound 70, (S)-2-ethyl-4-((1-(3-fluoro-4-(quinolin-4-yl)phenyl)ethyl)amino)-2,3-dihydro-1H-pyrrolo[3,4-c]pyridin-1-one], for which the half-maximal inhibitory concentration (IC50) (in experiment [1]; at IDH1 R132C; at IDH1 R132H) was over 1000 nM each time.

With `CCN1Cc2c(ccnc2N[C@@H](C)c2ccc(-c3ccnc(C(C)(C)C)c3)c(F)c2)C1=O` [Compound 71, (S)-4-((1-(4-(2-(tert-butyl)pyridin-4-yl)-3-fluorophenyl)ethyl)amino)-2-ethyl-2,3-dihydro-1H-pyrrolo[3,4-c]pyridin-1-one], the concentration for half-maximal inhibition (IC50) in experiment [1] was 100 to 500 nM; on IDH1 R132C, under 100 nM; on IDH1 R132H it was under 100 nM.

Regarding `CCN1Cc2c(ccnc2N[C@@H](C)c2ccc(-c3ccc4c(ccn4C)c3)c(F)c2)C1=O` [Compound 72, (S)-2-ethyl-4-((1-(3-fluoro-4-(1-methyl-1H-indol-5-yl)phenyl)ethyl)amino)-2,3-dihydro-1H-pyrrolo[3,4-c]pyridin-1-one], the results for the half-inhibitory concentration (IC50) (in experiment [1]; on IDH1 R132C; on IDH1 R132H) were over 1000 nM, 500 to 1000 nM and 100 to 500 nM, respectively.

Turning to `CCN1Cc2c(ccnc2N[C@@H](C)c2ccc(-c3ccc(C)cc3)c(F)c2)C1=O` [Compound 73, (S)-2-ethyl-4-((1-(2-fluoro-4′-methyl-[1,1′-biphenyl]-4-yl)ethyl)amino)-2,3-dihydro-1H-pyrrolo[3,4-c]pyridin-1-one], the 50% inhibitory concentration (IC50) in experiment [1] was over 1000 nM; on IDH1 R132C it was over 1000 nM; at IDH1 R132H it was 100 to 500 nM.

For `CCN1Cc2c(ccnc2N[C@@H](C)c2ccc(-c3ccc(F)cc3)c(F)c2)C1=O` [Compound 74, (S)-4-((1-(2,4′-difluoro-[1,1′-biphenyl]-4-yl)ethyl)amino)-2-ethyl-2,3-dihydro-1H-pyrrolo[3,4-c]pyridin-1-one], the IC50 (in experiment [1]; at IDH1 R132C; on IDH1 R132H) was over 1000 nM in each case.

Turning to `CCN1Cc2c(ccnc2N[C@@H](C)c2ccc(-c3ccc(C(F)(F)F)nc3)c(F)c2)C1=O` [Compound 75, (S)-2-ethyl-4-((1-(3-fluoro-4-(6-(trifluoromethyl)pyridin-3-yl)phenyl)ethyl)amino)-2,3-dihydro-1H-pyrrolo[3,4-c]pyridin-1-one], the half-inhibitory concentration (IC50) (in experiment [1]; on IDH1 R132C; on IDH1 R132H) was over 1000 nM in each case.

Turning to `CCN1Cc2c(ccnc2N[C@@H](C)c2ccc(-c3cc(C)nc(C)c3)c(F)c2)C1=O` [Compound 76, (S)-4-((1-(4-(2,6-dimethylpyridin-4-yl)-3-fluorophenyl)ethyl)amino)-2-ethyl-2,3-dihydro-1H-pyrrolo[3,4-c]pyridin-1-one], the half-inhibitory concentration (IC50) (in experiment [1]; on IDH1 R132C; at IDH1 R132H) was over 1000 nM throughout.

`CCN1Cc2c(ccnc2N[C@@H](C)c2ccc(-c3ccnc(C4CCC4)c3)c(F)c2)C1=O` [Compound 77, (S)-4-((1-(4-(2-cyclobutylpyridin-4-yl)-3-fluorophenyl)ethyl)amino)-2-ethyl-2,3-dihydro-1H-pyrrolo[3,4-c]pyridin-1-one]: the IC50 lay in the range of 500 to 1000 nM in experiment [1], 100 to 500 nM on IDH1 R132C and 100 to 500 nM on IDH1 R132H.
